Structures can show the parent of a compound that is named as a salt.
Columns and labels:
[1] = biological target: ZVpro (Zika virus NS2B-NS3 protease) (Zika virus, UniProt A0A024B7W1); assay: Fluorescence-based biochemical assay of ZVpro inhibition; conditions: for ZVpro IC50: enzyme 1 nM, substrate 10 μM, HEPES pH 7.3
[2] = biological target: DV2pro (NS2B-NS3 protease from DENV serotype-2) (Dengue virus type 2, UniProt P29990); assay: Fluorescence-based biochemical assay of DV2pro inhibition; conditions: IC50 vs substrate concentration 0.5 to 50 μM
[3] = test system: ZIKV-FLR in U87 cells; assay: Anti-ZIKV activity in U87 cells; assay type: cell-based, Zika virus

O=C(NCC1CCNCC1)c1c[nH]c2cc(-c3ccc(F)cc3)ccc12 [Compound 20, 6-(4-fluorophenyl)-N-(piperidin-4-ylmethyl)-1H-indole-3-carboxamide Hydrochloride]
IC50 [1]: > 50 µM

CC(C)(C)c1ccc(-c2ccc3cc(C(=O)NCC4CCNCC4)[nH]c3c2)cc1 [Compound 8, 6-(4-(Tert-butyl)phenyl)-N-(piperidin-4-ylmethyl)-1H-indole-2-carboxamide Hydrochloride]
IC50 [1]: 1.3 µM

O=C(NCC1CCNCC1)c1cc2ccc(-c3ccoc3)cc2[nH]1 [Compound 66, 6-(Furan-3-yl)-N-(piperidin-4-ylmethyl)-1H-indole-2-carboxamide Hydrochloride]
mode of inhibition against ZVpro ([1]; IC50 vs substrate concentration 0.5 to 10 μM): non-competitive
mode of inhibition against DV2pro [2]: non-competitive
log reduction of ZIKV replication in U87 cells ([3]; at 1 μM): 0.5 log
log reduction of ZIKV replication in U87 cells ([3]; at 10 μM): 2 log

COc1cc(-c2ccc3[nH]cc(C(=O)NC4CCNCC4)c3c2)cc(OC)c1OC [Compound 15, N-(piperidin-4-yl)-5-(3,4,5-trimethoxyphenyl)-1H-indole-3-carboxamide Hydrochloride]
IC50 [1]: > 50 µM

O=C(NCC1CCNCC1)c1cc2cc(-c3cccnc3)ccc2[nH]1 [Compound 33, N-(Piperidin-4-ylmethyl)-5-(pyridin-3-yl)-1H-indole-2-carboxamide Hydrochloride]
IC50 [1]: > 50 µM

CC(C)(C)c1ccc(-c2ccc3c(ccn3Cc3ccc(-c4ccoc4)cc3)c2)cc1 [Compound 4, 5-(4-(Tert-butyl)phenyl)-1-(4-(furan-3-yl)benzyl)-1H-indole Hydrochloride]
IC50 [1]: > 50 µM
ZVpro IC50 [1]: inactive

O=C(NCC1CCNCC1)c1cc2ccc(-c3ccc(OC(F)(F)F)cc3)cc2[nH]1 [Compound 51, N-(Piperidin-4-ylmethyl)-6-(4-(trifluoromethoxy)phenyl)-1H-indole-2-carboxamide Hydrochloride]
IC50 [1]: 3.2 µM

CC(C)(C)c1ccc(-c2ccc3sc(C(=O)NC4CCNCC4)cc3c2)cc1 [Compound 11, 5-(4-(Tert-butyl)phenyl)-N-(piperidin-4-yl)benzo[b]thiophene-2-carboxamide Hydrochloride]
IC50 [1]: 3.2 µM

N#Cc1ccc(-c2ccc3c(C(=O)NC4CCNCC4)coc3c2)cc1 [Compound 69, 6-(4-Cyanophenyl)-N-(piperidin-4-yl)benzofuran-3-carboxamide Hydrochloride]
IC50 [1]: > 50 µM

O=C(NCC1CCNCC1)c1c[nH]c2cc(-c3ccccc3F)ccc12 [Compound 21, 6-(2-fluorophenyl)-N-(piperidin-4-ylmethyl)-1H-indole-3-carboxamide Hydrochloride]
IC50 [1]: > 50 µM

CC(C)(C)c1ccc(-c2ccc3[nH]c(C(=O)NCC4CCNCC4)nc3c2)cc1 [Compound 10, 5-(4-(tert-butyl)phenyl)-N-(piperidin-4-ylmethyl)-1H-benzo[d]imidazole-2 carboxamide Hydrochloride]
IC50 [1]: 3.1 µM

N#Cc1ccc(-c2ccc3[nH]cc(C(=O)NC4CCNCC4)c3c2)cc1 [Compound 14, 5-(4-cyanophenyl)-N-(piperidin-4-yl)-1H-indole-3-carboxamide Hydrochloride]
IC50 [1]: > 50 µM

COc1cc(-c2ccc3c(C(=O)NCC4CCNCC4)c[nH]c3c2)cc(OC)c1OC [Compound 19, N-(piperidin-4-ylmethyl)-6-(3,4,5-trimethoxyphenyl)-1H-indole-3-carboxamide Hydrochloride]
IC50 [1]: > 50 µM

CC(C)(C)c1ccc(-c2ccc3cc(C(=O)NC4CCNCC4)sc3c2)cc1 [Compound 12, 6-(4-(Tert-butyl)phenyl)-N-(piperidin-4-yl)benzo[b]thiophene-2-carboxamide Hydrochloride]
IC50 [1]: 2.1 µM

CC(C)(C)c1ccc(-c2ccc3c(C(=O)NC4CCNCC4)coc3c2)cc1 [Compound 13, 6-(4-(Tert-butyl)phenyl)-N-(piperidin-4-yl)benzofuran-3-carboxamide Hydrochloride]
IC50 [1]: 5.1 µM

CC(C)(C)c1ccc(-c2ccc3c(C(=O)NCC4CCNCC4)c[nH]c3n2)cc1 [Compound 9, 6-(4-(tert-butyl)phenyl)-N-(piperidin-4-ylmethyl)-1H-pyrrolo[2,3-b]pyridine-3-carboxamide Hydrochloride]
IC50 [1]: 9.1 µM

O=C(NCC1CCNCC1)c1c[nH]c2ccc(-c3ccc(F)cc3F)cc12 [Compound 17, 5-(2,4-difluorophenyl)-N-(piperidin-4-ylmethyl)-1H-indole-3-carboxamide Hydrochloride]
IC50 [1]: > 50 µM

O=C(NCC1CCNCC1)c1c[nH]c2ccc(-c3ccc(F)cc3)cc12 [Compound 16, 5-(4-fluorophenyl)-N-(piperidin-4-ylmethyl)-1H-indole-3-carboxamide Hydrochloride]
IC50 [1]: > 50 µM

O=Cc1cccc(-c2ccc3[nH]cc(C(=O)NCC4CCNCC4)c3c2)c1 [Compound 18, 5-(3-formylphenyl)-N-(piperidin-4-ylmethyl)-1H-indole-3-carboxamide Hydrochloride]
IC50 [1]: > 50 µM

NCc1ccc(-c2ccc3c(C(=O)NCC4CCNCC4)c[nH]c3c2)cc1 [Compound 23, 6-(4-(aminomethyl)phenyl)-N-(piperidin-4-ylmethyl)-1H-indole-3-carboxamide Hydrochloride]
IC50 [1]: > 50 µM

CC(C)(C)c1ccc(-c2ccc3c(ccn3Cc3ccc(-c4ccncc4)cc3)c2)cc1 [Compound 5, 5-(4-(Tert-butyl)phenyl)-1-(4-(pyridin-4-yl)benzyl)-1H-indole Hydrochloride]
IC50 [1]: > 50 µM
ZVpro IC50 [1]: inactive

— PMC8585718 (European journal of medicinal chemistry, 2021)
